Experimental findings from ChEMBL document CHEMBL1201862, “PubChem BioAssay data set” (2004) are described below.

The source made the active and inactive calls.

Experiment [1] has as its target T1, Beta-lactamase (Pseudomonas aeruginosa, UniProt Q79MP6). The experiment can be described thus: inhibition of IMP-1 beta-lactamase activity – biochemical, epi-absorbance, selectivity assay for VIM-2 inhibitor project, dose response (AID 1920).
Experiment [2] addresses Beta-lactamase (Salmonella choleraesuis (strain SC-B67), UniProt Q5J463). In words: Epi-absorbance-based counterscreen for selective VIM-2 inhibitors: dose response biochemical high throughput screening assay to identify inhibitors of TEM-1 serine-beta-lactamase.
Experiment [3] deals with T1, Beta-lactamase. The experiment can be described thus: […] counterscreen for selective VIM-2 inhibitors: dose response biochemical high throughput screening assay to identify inhibitors of IMP-1 metallo-beta-lactamase. Background: Counterscreens check selectivity or assay interference.
Experiment [4] can be described thus: viability of uninfected HEp-2 cells – cell-based, HTS, cytotoxicity control for RSV inhibitor project, dose response (AID 2410). Type of experiment: functional. The settings on record: human respiratory syncytial virus.
The target in experiment [5] is Fructose-bisphosphate aldolase (Mycobacterium tuberculosis, UniProt P9WQA3). The experiment can be described thus: Fluorescence-based biochemical high throughput dose response assay for inhibitors of the fructose-bisphosphate aldolase (FBA) of M. tuberculosis. Type of experiment: functional.
Sequence of Fructose-bisphosphate aldolase (P9WQA3 whole entry): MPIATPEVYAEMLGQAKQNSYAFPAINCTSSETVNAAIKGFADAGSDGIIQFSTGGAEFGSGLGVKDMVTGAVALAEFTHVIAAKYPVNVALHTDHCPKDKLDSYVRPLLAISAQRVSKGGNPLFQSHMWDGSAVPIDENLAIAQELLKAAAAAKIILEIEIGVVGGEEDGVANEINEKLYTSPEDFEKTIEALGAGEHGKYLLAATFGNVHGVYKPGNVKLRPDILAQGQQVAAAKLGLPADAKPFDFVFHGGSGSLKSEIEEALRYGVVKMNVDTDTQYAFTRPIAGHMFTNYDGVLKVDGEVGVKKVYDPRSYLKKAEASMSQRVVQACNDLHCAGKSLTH
Experiment [6] is described as follows: T. cruzi growth inhibition in host cells, dose response, cell-based, plate reader, dry powder, set 2 (AID 652275). In kind it is functional.
For another experiment, the system named is HT-1080. In words: HT1080 cell viability loss – fluorescence readout (AID 620). Type of experiment: functional, cell-based. The conditions noted are these: Homo sapiens.
In experiment [7] the target is Luciferin 4-monooxygenase (Photinus pyralis, UniProt P08659). The experiment can be described thus: Counter Screen for Luciferase-based Assay Positives. [Related pubchem assays: 620, 618, 411 ].
Sequence of Luciferin 4-monooxygenase (P08659 whole entry): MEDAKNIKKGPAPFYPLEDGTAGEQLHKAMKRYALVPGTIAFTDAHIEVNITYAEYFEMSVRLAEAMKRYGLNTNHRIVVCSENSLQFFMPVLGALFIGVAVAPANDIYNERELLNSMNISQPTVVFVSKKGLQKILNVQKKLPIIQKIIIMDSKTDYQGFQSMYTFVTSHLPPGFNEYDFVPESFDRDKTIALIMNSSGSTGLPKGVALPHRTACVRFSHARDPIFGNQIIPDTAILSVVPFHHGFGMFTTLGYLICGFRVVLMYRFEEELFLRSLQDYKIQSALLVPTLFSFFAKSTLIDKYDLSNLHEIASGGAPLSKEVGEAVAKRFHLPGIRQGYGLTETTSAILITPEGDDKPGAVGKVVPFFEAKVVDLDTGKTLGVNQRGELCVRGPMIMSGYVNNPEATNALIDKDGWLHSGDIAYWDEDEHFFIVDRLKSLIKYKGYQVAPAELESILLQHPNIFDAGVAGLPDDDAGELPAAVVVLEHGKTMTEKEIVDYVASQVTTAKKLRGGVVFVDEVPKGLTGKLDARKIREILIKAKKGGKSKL
For experiment [8], the target named is T2, Methionyl-tRNA synthetase, putative (Trypanosoma brucei brucei, UniProt Q38C91).
T2 sequence (Q38C91 whole entry): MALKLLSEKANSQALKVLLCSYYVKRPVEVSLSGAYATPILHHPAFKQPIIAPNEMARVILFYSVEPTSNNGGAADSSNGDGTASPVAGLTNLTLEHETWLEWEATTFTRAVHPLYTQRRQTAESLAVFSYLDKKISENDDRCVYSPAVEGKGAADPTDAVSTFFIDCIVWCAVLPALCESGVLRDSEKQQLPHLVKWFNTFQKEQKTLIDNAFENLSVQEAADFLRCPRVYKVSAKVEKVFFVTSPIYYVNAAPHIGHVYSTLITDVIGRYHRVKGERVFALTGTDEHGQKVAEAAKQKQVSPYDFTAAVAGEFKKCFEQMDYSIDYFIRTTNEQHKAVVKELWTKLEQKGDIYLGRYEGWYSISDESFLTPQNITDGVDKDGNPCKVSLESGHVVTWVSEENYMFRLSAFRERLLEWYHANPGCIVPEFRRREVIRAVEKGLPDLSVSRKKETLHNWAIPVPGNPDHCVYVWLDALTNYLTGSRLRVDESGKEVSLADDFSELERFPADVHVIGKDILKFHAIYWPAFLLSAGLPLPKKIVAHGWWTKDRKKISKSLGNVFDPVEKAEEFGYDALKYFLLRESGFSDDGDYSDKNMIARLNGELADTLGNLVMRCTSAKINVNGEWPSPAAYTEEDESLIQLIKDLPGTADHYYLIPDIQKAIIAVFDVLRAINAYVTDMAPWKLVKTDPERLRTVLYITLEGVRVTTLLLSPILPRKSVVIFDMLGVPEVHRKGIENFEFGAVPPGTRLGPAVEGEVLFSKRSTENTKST
Type of experiment: functional, Trypanosoma brucei brucei strain 927/4 GUTat10.1.

Experiment [9] concerns the target T2, Methionyl-tRNA synthetase, putative. Type of experiment: functional, Trypanosoma brucei brucei strain 927/4 GUTat10.1. The source holds these as a separate data set.
Experiment [10] can be described thus: Counterscreen for inhibitors of Trypanosoma brucei methionyl tRNA synthetase (MetRS): Luminescence-based cell-based high throughput dose response assay to identify compounds that are cytotoxic to Jurkat human T lymphocyte cells. In kind it is functional.

T1 sequence (Q79MP6 whole entry): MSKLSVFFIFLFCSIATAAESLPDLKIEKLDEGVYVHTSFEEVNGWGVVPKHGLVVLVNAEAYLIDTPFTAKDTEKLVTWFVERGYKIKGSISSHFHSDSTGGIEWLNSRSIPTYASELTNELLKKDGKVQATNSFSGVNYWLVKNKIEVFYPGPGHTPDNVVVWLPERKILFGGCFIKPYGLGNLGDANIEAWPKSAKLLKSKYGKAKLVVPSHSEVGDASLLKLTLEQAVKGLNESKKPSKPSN
Sequence of Beta-lactamase (Salmonella choleraesuis (strain SC-B67), UniProt Q5J463) (Q5J463 whole entry): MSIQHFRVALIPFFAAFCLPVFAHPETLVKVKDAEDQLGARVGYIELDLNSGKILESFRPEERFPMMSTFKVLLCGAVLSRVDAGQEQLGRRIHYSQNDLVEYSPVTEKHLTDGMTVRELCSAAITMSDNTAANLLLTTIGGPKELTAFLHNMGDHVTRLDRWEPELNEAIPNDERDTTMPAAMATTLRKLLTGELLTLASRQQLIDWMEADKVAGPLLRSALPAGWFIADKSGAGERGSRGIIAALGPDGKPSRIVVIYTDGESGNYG

Broadly, the IC50 is the concentration that gives 50% inhibition. For the compound `Cc1cc(=O)oc2c3c(cc(OCC(=O)N4CCC[C@H]4C(=O)O)c12)OC(C)(C)CC3`, the IC50 on Beta-lactamase [1], at Beta-lactamase [2] and on Beta-lactamase [3] was > 59.6 µM (inactive) in each case.
As a reminder, the CC50 is the concentration that lowers cell viability or growth by half. Turning to `COc1ccc(Cn2nnnc2C(CC(C)C)N2CCN(c3ccccc3)CC2)cc1` (centres undefined), the CC50 in experiment [4] was > 50 µM (active). Besides, the IC50 in experiment [5] is > 9.99 µM (inactive).
A word on the AC50: it is the midpoint of the concentration-response curve, whichever way the signal moves. For `CCOC(=O)c1cc2c(c(-c3cccc(C#CCN(C)C)c3)n1)[C@@H](CCO)N([S+]([O-])C(C)(C)C)C2` (some centres undefined), the AC50 in experiment [6] is 16.2 µM (active).
In general, EC50 refers to the concentration needed to bring the measured effect to its halfway point. On to `Cc1ccc2nc(-c3cccc(N)c3)oc2c1`, for which the EC50 is > 50 µM (not active) with HT-1080 and 9.87 µM (active) in experiment [7]. For the same compound, the IC50 in [5] was 0.588 µM (active).
As to `Cc1cc(Br)ccc1NC(=O)c1ccc(-n2cncn2)c([N+](=O)[O-])c1`, the IC50 in experiment [8] was 5.79 µM (active); in experiment [9], 119 µM (inactive); in experiment [10], 83.3 µM (inactive).
Consider `Nc1c(Cl)ncnc1Nc1ccc(C(=O)O)cc1`, for which the IC50 in experiment [8] is 3.93 µM (active); in experiment [9], 12.5 µM (inactive); in experiment [10], 83.2 µM (inactive).
Turning to `CN(C)CC#Cc1cccc(-c2nc(C(=O)NCc3ccc(Oc4ccccc4)cc3)cc3c2[C@@H](CCO)N([S+]([O-])C(C)(C)C)C3)c1` (some centres undefined), the AC50 in [6] was 0.697 µM (active).
Turning to `CC1CCCCC1n1c(S)nnc1-c1cccnc1` (centres undefined), the IC50 on Beta-lactamase [1], on Beta-lactamase [2] and at Beta-lactamase [3] was > 59.6 µM (inactive) each time.
